# Experimental data as given in US20240239759A1, “ISOXAZOLINE COMPOSITIONS AND THEIR USE AS ANTIPARASITICS” (Intervet Inc., priority 2007, published 2024).
# Values joined by “and” are separate entries in the source; they are usually repeats but may differ in a detail not shown here. Equal entries are not always repeated.
# Key:
# [1] = system: cat fleas (Ctenocephalides felis); test: Adult fleas fed on artificial membranes with spiked blood (Example 1); details: 48 hr continuous feeding
# Procedure: Adult fleas (20-30) were fed on artificial membranes with blood spiked with Compound 10-1, Compound 11-1, or a positive control (fipronil) at a concentration of 100, 10, or 1 ppm. Flea efficacy was assessed after 48 hr of continuous feeding by comparing the number of killed and damaged fleas with the number of fed fleas. Flea efficacy was 100% for Compound 10-1, Compound 11-1, and fipronil at 100, 10, and 1 ppm.
# [2] = system: adult fleas (C. felis); test: Efficacy against fleas on mice (Example 2A); format: in vivo, Ctenocephalides felis
# Procedure: (§1) Mice were divided into groups of three, and treated topically with 100 ppm body weight, orally with 10 mg/kg bodyweight, or subcutaneously with 10 mg/kg bodyweight of Compound 11-1, fipronil (positive control), or nothing (negative control). These mice were sedated and infested with adult fleas (C. felis) 1, 3, 6, and 24 hr after treatment. Fleas were recovered from the mice after approximately 30 minutes of feeding. The assessment of flea inhibition (% of dead and damaged fleas) was conducted 1 and 24 hr after each infestation.
# [3] = system: M. musculinus; test: Efficacy against mites on mice (Example 2B); format: in vivo, Myocoptes musculinus; set-up: key: “+”=low infestation rate; “++”=medium infestation rate; “+++”=high infestation rate; details: repeated 7 days later
# Procedure: The mice were divided into groups of three, and treated topically with 100 ppm body weight, orally with 10 mg/kg body weight, or subcutaneously with 10 mg/kg body weight of Compound 11-1, fipronil (positive control), or nothing (negative control). This treatment was then repeated 7 days later. The infestation rate per mouse (“+”=low infestation rate, “++”=medium infestation rate, “+++”=high infestation rate) was assessed repeatedly on days 1, 6, 9, 13, and 23. Efficacy was defined as the inhibition of the mite infestation rate on treated mice relative to the negative control group.
# [4] = system: juvenile soft ticks (O. moubata); test: Efficacy against soft (Argaside) ticks on Guinea pigs (Example 2C); format: in vivo, Ornithodoros moubata; details: Guinea pig, up to Day 50
# Procedure: (§2) Six Guinea pigs were treated orally, subcutaneously, or intraperitoneally with 10 mg/kg bodyweight of Compound 11-1 or fipronil (positive control). The Guinea pigs were locally co-infested with juvenile soft ticks (O. moubata) and bed bugs (C. lectularius) once before the treatment, and at different time points after treatment between days 2 and 50. Ten engorged ticks/bed bugs were collected to assess the percentage of killed individuals per species 24 hr after each infestation.
# (§3) For Guinea pigs treated with Compound 11-1, the ticks and bed bugs died within 1 to 5 hr following infestation up to Day 29, and within 8 to 24 hr after day 29. For Guinea pigs treated with fipronil, ticks and bed bugs died within 1 to 7 hr after infestation up to Day 29, and within 8 to 24 hr after day 29.
# [5] = system: bed bugs (C. lectularius); test: Efficacy against bed bugs on Guinea pigs (Example 2C); format: in vivo, Cimex lectularius; details: Guinea pig
# Procedure: as §2, §3
# [6] = system: brown dog ticks, R. sanguineus (nymphs); test: Efficacy against hard (Ixodide) ticks on Guinea pigs (Example 2D); format: in vivo, Rhipicephalus sanguineus; details: all treated groups of Study 1 (100 ppm dip, 10 mg/kg oral, 10 mg/kg subcutaneous) and Study 2 (25 ppm dip, 2.5 mg/kg oral, 2.5 mg/kg subcutaneous), Day 4 to Day 8
# Procedure: (§4) Guinea pigs were divided into groups of three. Each group was subjected to one of the following treatments with either Compound 11-1, fipronil (positive control), or neither (negative control):
# (§5) • 1. 100 ppm body weight topical administration by animal dip • 2. 10 mg/kg body weight oral administration • 3. 10 mg/kg body weight subcutaneous administration • 4. No treatment (negative control)
# (§6) • 1. 25 ppm body weight topical administration by animal dip • 2. 2.5 mg/kg body weight oral administration • 3. 2.5 mg/kg body weight subcutaneous administration • 4. No treatment (negative control) One day before the treatment, all the Guinea pigs were infested with 100 vital juvenile (“nymph”) hard ticks (brown dog ticks, R. sanguineus). Engorged, detached nymphs were counted (eN) from Day 4 to Day 8 to calculate the efficacy of the treatments according to following formula: […]
# In addition, collected ticks were assessed for molting into the next stage.
# [7] = Side effects in mice, flea study (Example 2A); format: in vivo; details: topical 100 ppm, oral or subcutaneous 10 mg/kg
# Procedure: as §1
# [8] = Side effects in Guinea pigs, soft tick and bed bug study (Example 2C); format: in vivo; details: Guinea pigs; oral, subcutaneous or intraperitoneal 10 mg/kg
# Procedure: as §2
# [9] = Side effects in Guinea pigs, hard tick studies (Example 2D); format: in vivo; details: guinea pig, in vivo
# Procedure: as §4, §5, §6
# In the first study, 32 engorged R. sanguineus nymphs were collected from animals of the untreated negative control group. And in the second study, 75 engorged R. sanguineus nymphs were collected from animals of the untreated negative control group. […] Thus, the inhibition of engorged nymphs for both Compound 11-1 and fipronil was 100%.
compound,measurement,setting,value
"N#Cc1nn(-c2c(Cl)cc(C(F)(F)F)cc2Cl)c(N)c1[S+]([O-])C(F)(F)F (centres unmarked) [fipronil, reference compound]",Flea efficacy,[1]; blood spiked at 1 ppm,100%
same,Flea efficacy,[1]; blood spiked at 10 ppm,100%
same,Flea efficacy,[1]; blood spiked at 100 ppm,100%
same,Flea inhibition (% of dead and damaged fleas),"[2]; oral 10 mg/kg, infested 1 hr after treatment, assessed 1 hr after infestation",0-2%
same,Flea inhibition (% of dead and damaged fleas),"[2]; oral 10 mg/kg, infested 1 hr after treatment, assessed 24 hr after infestation",3.3%
same,Flea inhibition (% of dead and damaged fleas),"[2]; oral 10 mg/kg, infested 3 hr after treatment, assessed 1 hr after infestation",0-2%
same,Flea inhibition (% of dead and damaged fleas),"[2]; oral 10 mg/kg, infested 3 hr after treatment, assessed 24 hr after infestation",12.3%
same,Flea inhibition (% of dead and damaged fleas),"[2]; oral 10 mg/kg, infested 6 hr after treatment, assessed 1 hr after infestation",0-2%
same,Flea inhibition (% of dead and damaged fleas),"[2]; oral 10 mg/kg, infested 6 hr after treatment, assessed 24 hr after infestation",6.7%
same,Flea inhibition (% of dead and damaged fleas),"[2]; oral 10 mg/kg, infested 24 hr after treatment, assessed 1 hr after infestation",0-2%
same,Flea inhibition (% of dead and damaged fleas),"[2]; oral 10 mg/kg, infested 24 hr after treatment, assessed 24 hr after infestation",7.7%
same,Flea inhibition (% of dead and damaged fleas),"[2]; subcutaneous 10 mg/kg, infested 1 hr after treatment, assessed 1 hr after infestation",0-2%
same,Flea inhibition (% of dead and damaged fleas),"[2]; subcutaneous 10 mg/kg, infested 1 hr after treatment, assessed 24 hr after infestation",1.0%
same,Flea inhibition (% of dead and damaged fleas),"[2]; subcutaneous 10 mg/kg, infested 3 hr after treatment, assessed 1 hr after infestation",0-2%
same,Flea inhibition (% of dead and damaged fleas),"[2]; subcutaneous 10 mg/kg, infested 3 hr after treatment, assessed 24 hr after infestation",15.7%
same,Flea inhibition (% of dead and damaged fleas),"[2]; subcutaneous 10 mg/kg, infested 6 hr after treatment, assessed 1 hr after infestation",0-2%
same,Flea inhibition (% of dead and damaged fleas),"[2]; subcutaneous 10 mg/kg, infested 6 hr after treatment, assessed 24 hr after infestation",97.7%
same,Flea inhibition (% of dead and damaged fleas),"[2]; subcutaneous 10 mg/kg, infested 24 hr after treatment, assessed 1 hr after infestation",0-2%
same,Flea inhibition (% of dead and damaged fleas),"[2]; subcutaneous 10 mg/kg, infested 24 hr after treatment, assessed 24 hr after infestation",94.3%
same,Flea inhibition (% of dead and damaged fleas),"[2]; topical 100 ppm body weight, infested 1 hr after treatment, assessed 1 hr after infestation",0-2%
same,Flea inhibition (% of dead and damaged fleas),"[2]; topical 100 ppm body weight, infested 1 hr after treatment, assessed 24 hr after infestation",100%
same,Flea inhibition (% of dead and damaged fleas),"[2]; topical 100 ppm body weight, infested 3 hr after treatment, assessed 1 hr after infestation",0-2%
same,Flea inhibition (% of dead and damaged fleas),"[2]; topical 100 ppm body weight, infested 3 hr after treatment, assessed 24 hr after infestation",94.3%
same,Flea inhibition (% of dead and damaged fleas),"[2]; topical 100 ppm body weight, infested 6 hr after treatment, assessed 1 hr after infestation",0-2%
same,Flea inhibition (% of dead and damaged fleas),"[2]; topical 100 ppm body weight, infested 6 hr after treatment, assessed 24 hr after infestation",100%
same,Flea inhibition (% of dead and damaged fleas),"[2]; topical 100 ppm body weight, infested 24 hr after treatment, assessed 1 hr after infestation",0-2%
same,Flea inhibition (% of dead and damaged fleas),"[2]; topical 100 ppm body weight, infested 24 hr after treatment, assessed 24 hr after infestation",76.7%
same,Mite infestation rate per mouse,"[3]; oral 10 mg/kg, Day 1",+++
same,Mite infestation rate per mouse,"[3]; oral 10 mg/kg, Day 6",++ to +++
same,Mite infestation rate per mouse,"[3]; oral 10 mg/kg, Day 9",++ to +++
same,Mite infestation rate per mouse,"[3]; oral 10 mg/kg, Day 13",+
same,Mite infestation rate per mouse,"[3]; oral 10 mg/kg, Day 23",+
same,Mite infestation rate per mouse,"[3]; subcutaneous 10 mg/kg, Day 1",+++
same,Mite infestation rate per mouse,"[3]; subcutaneous 10 mg/kg, Day 6",2 mice: + to ++ and 1 mouse: +++
same,Mite infestation rate per mouse,"[3]; subcutaneous 10 mg/kg, Day 9",2 mice: + to ++ and 1 mouse: +++
same,Mite infestation rate per mouse,"[3]; subcutaneous 10 mg/kg, Day 13",+
same,Mite infestation rate per mouse,"[3]; subcutaneous 10 mg/kg, Day 23",+ to ++
same,Mite infestation rate per mouse,"[3]; topical 100 ppm body weight, Day 1",2 mice: + to ++ and 1 mouse: +++ (all
same,Mite infestation rate per mouse,"[3]; topical 100 ppm body weight, Day 6",+ to ++
same,Mite infestation rate per mouse,"[3]; topical 100 ppm body weight, Day 9",2 mice: none and 1 mouse: +
same,Mite infestation rate per mouse,"[3]; topical 100 ppm body weight, Day 13",none
same,Mite infestation rate per mouse,"[3]; topical 100 ppm body weight, Day 23",none
same,Efficacy against soft ticks (killed 24 hr after infestation),[4]; intraperitoneal 10 mg/kg,100% efficacy was observed up to Day 50.
same,Efficacy against soft ticks (killed 24 hr after infestation),[4]; oral 10 mg/kg,100% efficacy was observed up to Day 50.
same,Efficacy against soft ticks (killed 24 hr after infestation),[4]; subcutaneous 10 mg/kg,100% efficacy was observed up to Day 50.
same,Efficacy against bed bugs (killed 24 hr after infestation),"[5]; intraperitoneal 10 mg/kg, up to Day 18",100% efficacy was observed up to Day 18.
same,Efficacy against bed bugs (killed 24 hr after infestation),"[5]; oral 10 mg/kg, up to Day 18",100% efficacy was observed up to Day 18.
same,Efficacy against bed bugs (killed 24 hr after infestation),"[5]; subcutaneous 10 mg/kg, on Day 37",up to Day 35. 50% efficacy was observed
same,Engorged R. sanguineus nymphs collected,[6],no nymphs were collected
same,Inhibition of engorged nymphs,[6],100%
same,Side effects,[7],No side effects were observed
same,Side effects,[8],No side effects were observed
same,Side effects,[9],No side effects were observed
